Experimental data taken from PubChem BioAssay (NCI).
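Where inhibition never reached the appropriate level, the endpoint shown equals the highest concentration tested. Otherwise, values were interpolated linearly from a five-concentration, 48-hour dose response in 96-well plates. Definition used: TGI = concentration required for complete inhibition of growth.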

Key:
Assay in all cases: inhibition of tumour cell growth, NCI panel, 48 h
[1] = system: CAKI-1 renal
[2] = system: CCRF-CEM leukemia
[3] = system: COLO 205 colon
[4] = system: DU-145 prostate
[5] = system: EKVX NSCLC
[6] = system: HS 578T breast
[7] = system: HT29 colon
[8] = system: KM12 colon
[9] = system: LOX IMVI melanoma
[10] = system: MDA-MB-435
[11] = system: MOLT-4 leukemia
[12] = system: NCI-H522 lung
[13] = system: OVCAR-4 ovarian
[14] = system: PC-3 prostate
[15] = system: SK-MEL-28 melanoma
[16] = system: SK-MEL-5 melanoma
[17] = system: SNB-19 CNS
[18] = system: T-47D breast
[19] = system: U251 CNS

| SMILES | TGI [1] | TGI [2] | TGI [3] | TGI [4] | TGI [5] | TGI [6] | TGI [7] | TGI [8] | TGI [9] | TGI [10] | TGI [11] | TGI [12] | TGI [13] | TGI [14] | TGI [15] | TGI [16] | TGI [17] | TGI [18] | TGI [19] |
| --- | --- | --- | --- | --- | --- | --- | --- | --- | --- | --- | --- | --- | --- | --- | --- | --- | --- | --- | --- |
| CCCCn1cnnc1NS(=O)(=O)c1cc(C)c(Cl)cc1SCC(=O)O | > 10 µM | > 10 µM | > 10 µM | > 10 µM | > 10 µM | > 10 µM | > 10 µM | > 10 µM | > 10 µM | > 10 µM | > 10 µM | > 10 µM | > 10 µM | > 10 µM | > 10 µM | > 10 µM | > 10 µM | > 10 µM | > 10 µM |
| O=C1/C(=C/c2ccc3c(c2)OCO3)CCC1CN1CCOCC1 (stereo unspecified) | 9.21 µM | 5.91 µM | 35.8 µM | 29.6 µM | 34.7 µM | 14.8 µM | 38.5 µM | 11 µM | 7.84 µM | 40.6 µM | 9.46 µM | 2.78 µM | 18.8 µM | 4.49 µM | 10.4 µM | 20.4 µM | 31.2 µM | 42.3 µM | 14.3 µM |
| O=C1NC(=S)NC(=O)C1C(c1ccc([N+](=O)[O-])cc1)C1C(=O)NC(=S)NC1=O | > 100 µM | > 100 µM | > 100 µM | > 100 µM | > 100 µM | > 100 µM | > 100 µM | > 100 µM | > 100 µM | > 100 µM | > 100 µM | > 100 µM | > 100 µM | > 100 µM | > 100 µM | > 100 µM | > 100 µM | > 100 µM | > 100 µM |
| c1ccc(-c2cs[s+]c2)cc1 | > 100 µM | 83.1 µM | > 100 µM | > 100 µM | > 100 µM | > 100 µM | > 100 µM | > 100 µM | > 100 µM | > 100 µM | 85.6 µM | > 100 µM | > 100 µM | > 100 µM | > 100 µM | > 100 µM | > 100 µM | > 100 µM | > 100 µM |
| CCCCCCCCCCCCCCCCCCNc1ccn(C2OC(CO)C(O)C2O)c(=O)n1 (stereo unspecified) | > 100 µM | 30.4 µM | > 100 µM | > 100 µM | > 100 µM | > 100 µM | > 100 µM | > 100 µM | > 100 µM | > 100 µM | > 49.7 µM | > 100 µM | > 100 µM | > 89.1 µM | > 100 µM | > 100 µM | > 100 µM | > 100 µM | > 100 µM |
| CCOP1(=O)C=C(Sc2ccc([N+](=O)[O-])cc2[N+](=O)[O-])C(C)(C)O1 (stereo unspecified) | 24.8 µM | 16.4 µM | 23.9 µM | 26.4 µM | 18.8 µM | > 78.8 µM | > 75.9 µM | 38.6 µM | > 34.9 µM | 28.5 µM | > 100 µM | 9.36 µM | 28.9 µM | > 50.1 µM | 32 µM | 23 µM | > 57.8 µM | 32 µM | 30.3 µM |
| Cc1nc(-n2[nH]c(C)c(CCO)c2=O)[nH]c(=O)c1CCO | > 100 µM | > 100 µM | > 100 µM | > 100 µM | > 100 µM | > 100 µM | > 100 µM | > 100 µM | > 100 µM | > 100 µM | > 100 µM | > 100 µM | > 100 µM | > 100 µM | > 100 µM | > 100 µM | > 100 µM | > 100 µM | > 100 µM |
| c1cc(CSP234N5CCN2CCN3CCN4CC5)ccc1CSP123N4CCN1CCN2CCN3CC4 | > 100 µM | > 100 µM | > 100 µM | > 100 µM | > 100 µM | > 100 µM | > 100 µM | > 100 µM | > 100 µM | > 100 µM | > 100 µM | > 100 µM | > 100 µM | > 100 µM | > 100 µM | > 100 µM | > 100 µM | > 100 µM | > 100 µM |
| Cc1cc(C)nc(NC(=S)Nc2ccccc2Cl)c1 | > 100 µM | > 100 µM | > 100 µM | > 100 µM | > 100 µM | > 100 µM | > 100 µM | > 100 µM | > 100 µM | > 100 µM | > 100 µM | > 100 µM | > 100 µM | > 100 µM | > 100 µM | > 100 µM | > 100 µM | > 100 µM | > 100 µM |
